Test [1] addresses T1, recombinant human ALK5 (TGF-βR1) protein (Homo sapiens, UniProt P36897).
T1 construct: purchased Life Technologies PR9075A
T1 sequence (P36897 34-503): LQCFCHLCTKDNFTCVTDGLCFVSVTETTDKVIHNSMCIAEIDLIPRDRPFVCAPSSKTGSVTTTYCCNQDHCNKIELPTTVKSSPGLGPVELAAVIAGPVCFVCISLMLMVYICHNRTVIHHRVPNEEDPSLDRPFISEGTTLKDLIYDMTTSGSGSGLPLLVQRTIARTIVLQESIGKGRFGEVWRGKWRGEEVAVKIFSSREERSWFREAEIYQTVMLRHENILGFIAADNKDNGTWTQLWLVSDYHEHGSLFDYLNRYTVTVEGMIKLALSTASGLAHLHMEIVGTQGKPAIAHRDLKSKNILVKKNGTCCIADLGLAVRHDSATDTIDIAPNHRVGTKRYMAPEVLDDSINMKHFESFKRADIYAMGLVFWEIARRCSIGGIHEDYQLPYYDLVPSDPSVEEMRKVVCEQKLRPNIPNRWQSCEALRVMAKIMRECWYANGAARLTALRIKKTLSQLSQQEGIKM
In words: Biochemical ALK5 (TGF-βR1) assay to measure pKi (LANCE Ultra ULight kinase assay). The settings on record: apparent pKi, converted from pIC50 by Cheng-Prusoff. In a few lines: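 Cmpd + enzyme, 60 min RT; ATP from 125 μM (5×) stock, 60 min 37 °C; stop 12 mM EDTA/Eu anti-pThr1342 Topo2α Ab (pH 7.0 buffer); TR-FRET 665 nm. DMSO = max, SD-208 = min signal. 4-PL pIC50 → pKi (Cheng-Prusoff).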

Test [2] deals with TGF-β-stimulated SMAD3 phosphorylation in BEAS-2B cells. In words: Cellular ALK5 potency assay, inhibition of TGF-β stimulated pSMAD3 formation in BEAS-2B cells. The class given is cell-based. Particulars: Homo sapiens, pSMAD3, TGF-β 10 ng/mL, read-out: BEAS2B pIC50 (converted). In outline:
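Cells were seeded overnight, rinsed into HEPES/BSA-supplemented HBSS, and dosed with serially diluted compound for 1 h at 37 °C, 5% CO2. TGF-β stimulation (10 ng/mL final) followed for 30 min, then lysis and AlphaLISA pSMAD3 measurement; potency reported as pIC50.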

As to `Cc1cccc(-c2nccc(Nc3ccnc(Nc4csc(C(=O)O[C@H]5CC[C@](C)(N)CC5)c4)n3)n2)n1` [Compound 572, (4-amino-4-methyl-cyclohexyl) 4-[[4-[[2-(6-methyl-2-pyridyl)pyrimidin-4-yl]amino]pyrimidin-2-yl]amino]thiophene-2-carboxylate], the Ki in test [1] was 0.0398 to 0.316 nM. In test [2], the IC50 is 25.1 to 158 nM.
In the same order, the values of `Cc1cccc(-c2nccc(Nc3ccnc(Nc4cncc(CN5CC(C(=O)O[C@H]6CCNC6)C5)c4)n3)n2)n1` [Compound 573, [(3S)-pyrrolidin-3-yl] 1-[[5-[[4-[[2-(6-methyl-2-pyridyl)pyrimidin-4-yl]amino]pyrimidin-2-yl]amino]-3-pyridyl]methyl]azetidine-3-carboxylate] are 0.0398 to 0.316 nM and 25.1 to 158 nM.
In the case of `Cc1cccc(-c2nccc(Nc3ccnc(Nc4ccc(C(=O)O[C@@H]5CCNC5)cn4)n3)n2)n1` [Compound 574, [(3R)-pyrrolidin-3-yl] 6-[[4-[[2-(6-methyl-2-pyridyl)pyrimidin-4-yl]amino]pyrimidin-2-yl]amino]pyridine-3-carboxylate], the Ki in test [1] was 3.98 to 31.6 nM. Besides, in test [2], the IC50 is 200 to 1260 nM.
For `Cc1cccc(-c2nccc(Nc3ccnc(Nc4ccc(C(=O)O[C@H]5CCNC5)cn4)n3)n2)n1` [Compound 575, [(3S)-pyrrolidin-3-yl] 6-[[4-[[2-(6-methyl-2-pyridyl)pyrimidin-4-yl]amino]pyrimidin-2-yl]amino]pyridine-3-carboxylate], the Ki in test [1] was 3.98 to 31.6 nM. The IC50 in test [2] is 200 to 1260 nM.
The corresponding values for `CC(=O)N1CC(COC(=O)c2cc(Nc3nccc(Nc4ccnc(-c5cccc(C)n5)n4)n3)cs2)C1` [Compound 576, (1-acetylazetidin-3-yl)methyl 4-[[4-[[2-(6-methyl-2-pyridyl)pyrimidin-4-yl]amino]pyrimidin-2-yl]amino]thiophene-2-carboxylate] are 0.0398 to 0.316 nM and 25.1 to 158 nM.
For `Cc1cccc(-c2nccc(Nc3ccnc(Nc4ccc(C(=O)OC[C@H]5CCCN5)nc4)n3)n2)n1` [Compound 577, [(2R)-pyrrolidin-2-yl]methyl 5-[[4-[[2-(6-methyl-2-pyridyl)pyrimidin-4-yl]amino]pyrimidin-2-yl]amino]pyridine-2-carboxylate], in test [1], the Ki was 0.0398 to 0.316 nM. Further, the IC50 in test [2] is 25.1 to 158 nM.
`Cc1cccc(-c2nccc(Nc3ccnc(Nc4ncc(C(=O)OC[C@H]5CCCCN5)s4)n3)n2)n1` [Compound 578, [(2R)-2-piperidyl]methyl 2-[[4-[[2-(6-methyl-2-pyridyl)pyrimidin-4-yl]amino]pyrimidin-2-yl]amino]thiazole-5-carboxylate]: the Ki in test [1] was 3.98 to 31.6 nM. In addition, the IC50 in test [2] is 200 to 1260 nM.
In the same order, the values of `Cc1cccc(-c2nccc(Nc3ccnc(Nc4cc(C(=O)OC5CNC5)ccn4)n3)n2)n1` [Compound 579, azetidin-3-yl 2-[[4-[[2-(6-methyl-2-pyridyl)pyrimidin-4-yl]amino]pyrimidin-2-yl]amino]pyridine-4-carboxylate] are 3.98 to 31.6 nM and 25.1 to 158 nM.
For `Cc1cccc(-c2nccc(Nc3ccnc(Nc4nc(C(=O)OC[C@@H]5CCCNC5)cs4)n3)n2)n1` [Compound 580, [(3R)-3-piperidyl]methyl 2-[[4-[[2-(6-methyl-2-pyridyl)pyrimidin-4-yl]amino]pyrimidin-2-yl]amino]thiazole-4-carboxylate], the Ki in test [1] was 0.398 to 3.16 nM. In addition, the IC50 in test [2] was 200 to 1260 nM.
For the compound `Cc1cccc(-c2nccc(Nc3ccnc(Nc4ccc(C(=O)OCCN5CCNCC5)cn4)n3)n2)n1` [Compound 581, 2-piperazin-1-ylethyl 6-[[4-[[2-(6-methyl-2-pyridyl)pyrimidin-4-yl]amino]pyrimidin-2-yl]amino]pyridine-3-carboxylate], the Ki in test [1] is 3.98 to 31.6 nM. Moreover, in test [2], the IC50 was 25.1 to 158 nM.
In the case of `Cc1cccc(-c2nccc(Nc3ccnc(Nc4ccc(C(=O)OC[C@H]5CCNC5)nc4)n3)n2)n1` [Compound 582, [(3S)-pyrrolidin-3-yl]methyl 5-[[4-[[2-(6-methyl-2-pyridyl)pyrimidin-4-yl]amino]pyrimidin-2-yl]amino]pyridine-2-carboxylate], the Ki in test [1] is 0.0398 to 0.316 nM. Besides, the IC50 in test [2] is 25.1 to 158 nM.
The corresponding values for `Cc1cccc(-c2nccc(Nc3ccnc(Nc4csc(C(=O)OC[C@H]5CCCN5)c4)n3)n2)n1` [Compound 583, [(2R)-pyrrolidin-2-yl]methyl 4-[[4-[[2-(6-methyl-2-pyridyl)pyrimidin-4-yl]amino]pyrimidin-2-yl]amino]thiophene-2-carboxylate] are 0.0398 to 0.316 nM and 25.1 to 158 nM.
In the same order, the values of `Cc1cccc(-c2nccc(Nc3ccnc(Nc4ccc(C(=O)OC[C@@H]5CCNC5)nc4)n3)n2)n1` [Compound 584, [(3R)-pyrrolidin-3-yl]methyl 5-[[4-[[2-(6-methyl-2-pyridyl)pyrimidin-4-yl]amino]pyrimidin-2-yl]amino]pyridine-2-carboxylate] are 0.0398 to 0.316 nM and 25.1 to 158 nM.
In the case of `Cc1cccc(-c2nccc(Nc3ccnc(Nc4csc(C(=O)O)n4)n3)n2)n1` [Compound 585, 4-[[4-[[2-(6-methyl-2-pyridyl)pyrimidin-4-yl]amino]pyrimidin-2-yl]amino]thiazole-2-carboxylic acid], in test [1], the Ki was 3.98 to 31.6 nM. For the same compound, in test [2], the IC50 was 200 to 1260 nM.
With `Cc1cccc(-c2nccc(Nc3ccnc(Nc4nc(C(=O)OC[C@H]5CCCCN5)cs4)n3)n2)n1` [Compound 586, [(2R)-2-piperidyl]methyl 2-[[4-[[2-(6-methyl-2-pyridyl)pyrimidin-4-yl]amino]pyrimidin-2-yl]amino]thiazole-4-carboxylate], the Ki in test [1] was 0.398 to 3.16 nM. The IC50 in test [2] was 25.1 to 158 nM.
With `Cc1cccc(-c2nccc(Nc3ccnc(Nc4ccc(C(=O)OCC5CCNCC5)nc4)n3)n2)n1` [Compound 587, 4-piperidylmethyl 5-[[4-[[2-(6-methyl-2-pyridyl)pyrimidin-4-yl]amino]pyrimidin-2-yl]amino]pyridine-2-carboxylate], in test [1], the Ki is 0.0398 to 0.316 nM. Further, in test [2], the IC50 was 25.1 to 158 nM.
For `Cc1cccc(-c2nccc(Nc3ccnc(Nc4csc(C(=O)OC[C@H]5CCCCN5)c4)n3)n2)n1` [Compound 588, [(2R)-2-piperidyl]methyl 4-[[4-[[2-(6-methyl-2-pyridyl)pyrimidin-4-yl]amino]pyrimidin-2-yl]amino]thiophene-2-carboxylate], the Ki in test [1] was 0.0398 to 0.316 nM. For the same compound, the IC50 in test [2] was 25.1 to 158 nM.
The corresponding values for `Cc1cccc(-c2nccc(Nc3ccnc(Nc4ccc(C(=O)OCCN5C[C@@H](C)N[C@@H](C)C5)nc4)n3)n2)n1` [Compound 589, 2-[(3R,5S)-3,5-dimethylpiperazin-1-yl]ethyl 5-[[4-[[2-(6-methyl-2-pyridyl)pyrimidin-4-yl]amino]pyrimidin-2-yl]amino]pyridine-2-carboxylate] are 0.398 to 3.16 nM and 25.1 to 158 nM.
The corresponding values for `Cc1cccc(-c2nccc(Nc3ccnc(Nc4csc(C(=O)OC[C@H]5CC[C@H](N)CC5)c4)n3)n2)n1` [Compound 590, (4-aminocyclohexyl)methyl 4-[[4-[[2-(6-methyl-2-pyridyl)pyrimidin-4-yl]amino]pyrimidin-2-yl]amino]thiophene-2-carboxylate] are 0.0398 to 0.316 nM and 25.1 to 158 nM.

The values are drawn from patent publication US20230399312A1, “SUBSTITUTED PYRIMIDINES AND METHODS OF USE” (THERAVANCE BIOPHARMA R&D IP, LLC, priority 2020, published 2023).
